The values that follow come from patent publication US6414007B1, “Oxiranyl-triazoline thiones and their use as microbicides” (Bayer Aktiengesellschaft, priority 1997, dated 2002).

The subject of series [1] is Podosphaera leucotricha. The series is described as follows: Podosphaera test (apple)/protective. The conditions noted are these: protective, evaluation 10 days after inoculation. The format is in vivo. The procedure: Podosphaera test (apple)/protective Solvent: 47 parts by weight of acetone Emulsifier: 3 parts by weight of alkylaryl polyglycol ether To produce a suitable preparation of active compound, 1 part by weight of active compound is mixed with the stated amounts of solvent and emulsifier, and the concentrate is diluted with water to the desired concentration. To test for protective activity, young plants are sprayed with the preparation of active compound at the stated application rate. After the spray coating has dried on, the plants are inoculated with an aqueous spore suspension of the causative organism of apple mildew Podosphaera leucotricha. The plants are then placed in a greenhouse at approximately 23° C. and a relative atmospheric humidity of approximately 70%. Evaluation was carried out 10 days after the inoculation. 0% means an efficacy which corresponds to that of the control, whereas an efficacy of 100% means that no infections are observed.

The test system of series [2] is Erysiphe graminis f.sp. hordei. The series is described as follows: Erysiphe test (barley)/protective. The format is in vivo. The settings on record: protective, application rate 125 g/ha, evaluation 7 days after inoculation. The procedure:
(§1) Erysiphe test (barley)/protective Solvent: 25 parts by weight of N,N-dimethylacetamide Emulsifier: 0.6 parts by weight of alkylaryl polyglycol ether To produce a suitable preparation of active compound, 1 part by weight of active compound is mixed with the stated amounts of solvent and emulsifier, and the concentrate is diluted with water to the desired concentration. To test for protective activity, young plants are sprayed with the preparation of active compound at the stated application rate. After the spray coating has dried on, the plants are dusted with spores of Erysiphe graminis f.sp. hordei. The plants are placed in a greenhouse at a temperature of approximately 20° C. and a relative atmospheric humidity of approximately 80% to promote the development of mildew pustules. Evaluation is carried out 7 days after the inoculation. 0% means an efficacy which corresponds to that of the control, whereas an efficacy of 100% means that no infections are observed.

For series [3], the system named is Erysiphe graminis f.sp. hordei. The series is described as follows: Erysiphe test (barley)/curative. Type of series: in vivo. The settings on record: curative (sprayed 48 hours after inoculation), application rate 250 g/ha, evaluation 7 days after inoculation. On the procedure: as §1, with “(barley)/curative” for “(barley)/protective”, “curative” for “protective”, “young plants are dusted with spores of Erysiphe graminis f.sp. hordei. 48 hours after the inoculation, the” for “young”, “rate.” for “rate. After the spray coating has dried on, the plants are dusted with spores of Erysiphe graminis f.sp. hordei.”

Series [4] has as its system Erysiphe graminis f.sp. tritici. The series is described as follows: Erysiphe test (wheat)/protective. The settings on record: protective, application rate 250 g/ha, evaluation 7 days after inoculation. Type of series: in vivo. The procedure:
as §1, with “(wheat)/protective” for “(barley)/protective”, “tritici.” for “hordei.”

The subject of series [5] is Leptosphaeria nodorum. The series is described as follows: Leptosphaeria nodorum test (wheat)/protective. The format is in vivo. The settings on record: protective, application rate 250 g/ha, evaluation 10 days after inoculation. On the procedure:
Leptosphaeria nodorum test (wheat)/protective Solvent: 25 parts by weight of N,N-dimethylacetamide Emulsifier: 0.6 parts by weight of alkylaryl polyglycol ether To produce a suitable preparation of active compound, 1 part by weight of active compound is mixed with the stated amounts of solvent and emulsifier, and the concentrate is diluted with water to the desired concentration. To test for protective activity, young plants are sprayed with the preparation of active compound at the stated application rate. After the spray coating has dried on, the plants are dusted with a spore suspension of Leptosphaeria nodorum. The plants remain in an incubation cabin at 20° C. and 100% relative atmospheric humidity for 48 hours. The plants are placed in a greenhouse at a temperature of approximately 15° C. and a relative atmospheric humidity of 80%. Evaluation is carried out 10 days after the inoculation. 0% means an efficacy which corresponds to that of the control, whereas an efficacy of 100% means that no infections are observed.

Series [6] deals with Puccinia recondita. The series is described as follows: Puccinia test (wheat)/curative. The conditions noted are these: curative, application rate 125 g/ha, evaluation 10 days after inoculation. The format is in vivo. On the procedure:
Puccinia test (wheat)/curative Solvent: 25 parts by weight of N,N-dimethylacetamide Emulsifier: 0.6 parts by weight of alkylaryl polyglycol ether To produce a suitable preparation of active compound, 1 part by weight of active compound is mixed with the stated amounts of solvent and emulsifier, and the concentrate is diluted with water to the desired concentration. To test for curative activity, young plants are sprayed with a Conidia suspension of Puccinia recondita. The plants remain in an incubation cabin at 20° C. and 100% relative atmospheric humidity for 48 hours. The plants are then sprayed with the preparation of active compound at the stated application rate. The plants are placed in a greenhouse at a temperature of approximately 20° C. and a relative atmospheric humidity of approximately 80% to promote the development of rust pustules. Evaluation is carried out 10 days after the inoculation. 0% means an efficacy which corresponds to that of the control, whereas an efficacy of 100% means that no infections are observed.

Series [7] relates to Puccinia recondita. The series is described as follows: Puccinia test (wheat)/protective. The format is in vivo. The conditions noted are these: protective, application rate 125 g/ha, evaluation 10 days after inoculation. The procedure: Puccinia test (wheat)/protective Solvent: 25 parts by weight of N,N-dimethylacetamide Emulsifier: 0.6 parts by weight of alkylaryl polyglycol ether To produce a suitable preparation of active compound, 1 part by weight of active compound is mixed with the stated amounts of solvent and emulsifier, and the concentrate is diluted with water to the desired concentration. To test for protective activity, young plants are sprayed with the preparation of active compound at the stated application rate. After the spray coating has dried on, the plants are sprayed with a […] of Puccinia recondita. The plants remain in an incubation cabin at 20° C. and 100% relative atmospheric humidity for 48 hours. The plants are placed in a greenhouse at a temperature of approximately 20° C. and a relative atmospheric humidity of approximately 80% to promote the development of rust pustules. Evaluation is carried out 10 days after the inoculation. 0% means an efficacy which corresponds to that of the control, whereas an efficacy of 100% means that no infections are observed.

In series [8] the test system is Coriolus versicolor. The series is described as follows: Inhibition test on giant colonies of Basidiomycetes. The format is cell-based. The conditions noted are these: Trametes versicolor; 6 ppm of active compound, malt extract peptone agar, 26° C., evaluation after 3 or 7 days; read-out: Inhibition in per cent of radial growth of giant colonies. The procedure:
Inhibition test on giant colonies of Basidiomycetes Solvent: Dimethylsulphoxide To produce a suitable preparation of active compound, 0.2 parts by weight of active compound are admixed to 99.8 parts by weight of the abovementioned solvent. An agar, prepared by using malt extract peptone, is mixed in a liquid state with the preparation of active compound at the particular desired application rate. After solidification, the resultant nutrient medium is incubated at 26° C. with mycelium pieces punched out of colonies of Coriolus versicolor. Evaluation is carried out after 3 or 7 days' storage at 26° C. by measuring the growth of the mycelium and scoring the resulting inhibition in percent in comparison to the untreated control. 0% means an inhibition of growth which corresponds to that of the untreated control, while an inhibition of growth of 100% means that no growth of mycelium is observed.

Regarding `Fc1ccc(C2(Cn3nc[nH]c3=S)OC2c2ccccc2Cl)cc1` (stereo not drawn) [A, 3-(2-chloro-phenyl)-2-(4-fluoro-phenyl)-2-[(4,5-dihydro-5-thiono-1,2,4-triazol-1-yl)-methyl]-oxirane, reference compound], the Efficacy in % in series [1] (application rate 1 g/ha) is reported as 57%; in [1] (application rate 10 g/ha), 92%.

For orientation: inhibition means the change of the read-out against control, counted positive when it falls. Turning to `CCOCCCNC(=O)n1cnn(CC2(c3ccc(F)cc3)OC2c2ccccc2Cl)c1=S` (stereo not drawn) [Example 1], the Efficacy in % in series [2], in [3], in series [4], in [5], in [6] and in series [7] was 100% each time. Further, the Efficacy in % in [1] (application rate 1 g/ha) is 65%; in series [1] (application rate 10 g/ha) it was 100%. Besides, the inhibition at 6 ppm in series [8] is 100%.

The term melting point denotes the temperature, or range, at which the solid turns liquid. Consider `COCCNC(=O)n1cnn(CC2(c3ccc(F)cc3)OC2c2ccccc2Cl)c1=S` (stereo not drawn) [Example 2], for which the melting point lay in the range of 105 to 107 °C. The molecule further yielded an Efficacy in % in [2] of 100%. The Efficacy in % in series [6] turned out to be 100%. Further, in series [7], the Efficacy in % is given as 100%. The Efficacy in % in series [1] (application rate 1 g/ha) is on record as 88%. For the same molecule, the Efficacy in % in series [1] (application rate 10 g/ha) is 100%.

`CC(C)NC(=O)n1cnn(CC2(c3ccc(F)cc3)OC2c2ccccc2Cl)c1=S` (stereo not drawn) [Example 3] showed a melting point of 104 to 106 °C. The molecule also registered an Efficacy in % in series [2] of 100%. Further, the Efficacy in % in series [4] was 100%. Further, the Efficacy in % in [6] came to 100%. In series [1] (application rate 1 g/ha), the Efficacy in % came out at 80%. In addition, the Efficacy in % in [1] (application rate 10 g/ha) is recorded as 100%. Further, in [8], the inhibition at 6 ppm was found to be 100%.
